In publication PMC6273963, “Design, Synthesis, and Biological Evaluation of Some Novel Pyrrolizine Derivatives as COX Inhibitors with Anti-Inflammatory/Analgesic Activities and Low Ulcerogenic Liability” (Molecules, 2016):
“Also recorded” adds a separate entry of the source.

Tests used:
[1] = test system: carrageenan-induced rat paw edema; assay: Carrageenan-induced rat paw edema model (anti-inflammatory activity); type: in vivo; design: key to Potency (anti-inflammatory activity of tested compound/ibuprofen): ratio of % inhibition of edema (compound / ibuprofen); ibuprofen = 1.00; details: for % Inhibition in Edema Thickness 1 h: 1 h after induction of inflammation; for % Inhibition in Edema Thickness 1 h / % Inhibition in Edema Thickness 2 h / % Inhibition in Edema Thickness 3 h: IP, dose molecularly equivalent to ibuprofen, n = 6; for % Inhibition in Edema Thickness 2 h: 2 h after induction of inflammation; for % Inhibition in Edema Thickness 3 h: 3 h after induction of inflammation; for Potency (anti-inflammatory activity of tested compound/ibuprofen): after 3 h of induction of inflammation, relative to ibuprofen; for anti-inflammatory activity (in words): compared with ibuprofen and parent compound 12
Description: The carrageenan-induced rat paw edema model was utilized to investigate the anti-inflammatory activity of compounds 12–19 relative to ibuprofen as a reference drug.
(§1) Adult albino rats of both sex weighing 100–140 g were used in evaluation of the anti-inflammatory, analgesic, ulcerogenic activity in addition to the histopathological study of the new pyrrolizines 12–19. Animal ethical use clearance was obtained from the Ethical Committee at the College of Pharmacy, Umm Al-Qura University. Normalization of the animals with laboratory conditions were achieved by keeping them in laboratory one week before starting the experiments. Standard rat pellet diet was used for feeding animals and water ad libitum.
The anti-inflammatory activity of the novel compounds 12–19 was evaluated in comparison with ibuprofen as a standard, using a rat paw edema model as described by Winter et al.. Adult albino rats of both sexes (100–140 gm) were used. Rats were uniformly hydrated by giving 3 mL water for each rat through gastric inoculation to reduce variability to edema response. Animals were then divided into groups of six animal each. The control group was given saline solution containing few drops of sodium carboxymethyl cellulose (CMC) 1% and DMSO. Ibuprofen (50 and 100 mg/kg) was given as standard drug. The new compounds 12–19 in a dose molecularly equivalent to ibuprofen were dissolved in 0.5 mL DMSO and CMC 1% was added dropwise with continuous triturating to complete the specified volume. The tested compounds were administered intraperitoneally (IP). The induction of inflammation was achieved by subcutaneous (SC) injection of carrageenan-sodium gel, into the sub-plantar region of the right hind paw. The dorsoventral diameter (thickness) of the right and left hind paw of each rat was measured using digital calipers with accuracy of 0.01 mm (Cole-Parmer, Vernon Hills, IL, USA). The thickness of edema was measured 1, 2 and 3 h after induction of inflammation. The left hind paw diameter served as a control for the degree of inflammation in the right hind paw. The changes in the edema thickness were expressed as mean ± SEM, Figure 4. The anti-inflammatory activity was calculated as % inhibition of inflammation = (1 − Lt/Lc) × 100. Where Lt is the mean increase in paw thickness in rats treated with the tested compounds and Lc is the mean increase in paw thickness in control group. Data were collected, and statistically analyzed by One way ANOVA followed by student-Newman-Keuls multiple comparison test, Table 2.

[2] = test system: stomach mucosa, submucosa and mucosal glands; assay: Histopathological study of rat stomach; type: in vivo; details: rats of the ulcerogenicity test, haematoxylin and eosin stain
Description: The stomachs of the rats used in ulcerogenicity test were subjected to a histopathological study to visualize the deep effects of ibuprofen and tested compounds on the stomach mucosa, submucosa and mucosal glands. The specimens were stained with haematoxylin and eosin stain [33].
The study investigated the deep effect of the tested compounds on the mucosa, submucosa and mucosal gland. The stomachs which were opened longitudinally along the greater curvature were used and the specimens were taken from the stomachs of all cases. These specimens were fixed in 10% formalin solution for 72 h. The samples were processed and embedded in paraffin wax. Microtomy was done and 5 microns tissue sections were obtained and mounted on clean glass slides.

[3] = test system: rat stomach mucosa; assay: Acute ulcerogenicity study; type: in vivo; details: oral, 0.48 mmol/kg; for Ulcerogenicity UI (ulcer index): three days, n = 6
Experimental: GIT toxicity is the main serious side effect of the NSAIDs. In this work, the ulcerogenicity of the novel compounds 12–19 was evaluated according to the previous reported methodology. The tested compounds 12–19 and ibuprofen were given orally in a dose of 0.48 mmol/kg.
as §1
GIT toxicity was evaluated according to the previous report. Adult albino rats of both sexes were divided into groups of six animals each. The test compounds were dissolved first in 0.5 mL DMSO, then CMC (1%) was added dropwise with trituration. Rats were fasted 20 h before drug administration. The eight tested compounds and ibuprofen were given orally in a dose of 0.24 and 0.48 mmol/kg/day suspended in 1% CMC, while the control group received vehicle (1% CMC containing few drops of DMSO). Rats were then fasted for 2 h, allowed to feed for 2 h then fasted again for another 20 h. Other doses were given in the second and third days. In the fourth day, Pentobarbital (60 mg/kg IP) was used to induce deep anesthesia then rats were sacrificed. The stomachs were removed, opened along with the greater curvature and rinsed with 0.9% saline. The number of mucosal damages (red spots) were counted using magnifying lens and their severity (ulcerogenic severity) was graded in a scale from 0 to 3 as follows: (0) normal (no injury), (0.5) red coloration, (1) spot ulcer, (1.5) hemorrhagic streaks, (2) ulcer > 3 mm, (3) ulcer > 5 mm. The ulcer index was calculated using the following equation ulcer index (UI) = UN + US + UP/10, where UN is the average number pf ulcers per animal, US is the average of severity score, UP is the percent of animal with ulcer.

[4] = test system: thermal pain (hot plate); assay: Hot-plate test (analgesic activity); type: in vivo, rat; details: IP; for analgesic activity (in words): 0.24 and 0.48 mmol/kg, 2 h after injection, compared with ibuprofen
Experimental: A hot-plate was used to induce thermal pain and the cutoff time was fixed to 15 s [30]. […] The analgesic activity of the novel pyrrolizines were carried out using the thermal model (hot-plate test) according to a previous report [30]. An electronically controlled hot-plate (Harvard Apparatus Ltd., Kent, UK) was used and the cut-off time was 15 s and the temperature was adjusted to 52 ± 0.1 °C. Animals were then divided into groups of six animal each. Rats were assigned numbers of 1–6 in each group. The reference drug was given intraperitoneally at a dose of 50 mg/kg (0.24 mmol/kg) and 100 mg/kg (0.48 mmol/kg). […] The response latencies (time elapsed until licking paw or jumping) were measured and expressed as mean ± SEM. The percent changes (analgesic effects) of the tested compounds were calculated as percent change in latencies divided by baseline time (100 × (T1 − T0)/T0) and results were expressed as % change ± SEM, Figure 6.

[5] = test system: 5-LOX; design: method as in PMID 8021931, PMID 9396390, PMID 12660020, PMID 19719242; details: literature values, Figures 1 and 2; cited from earlier work
[6] = test system: COX-1; details: cited from earlier work; for IC50: literature values, Figures 1 and 2
[7] = test system: COX-2; design: method as in PMID 10027870, PMID 8021931, PMID 12660020; details: literature values, Figures 1 and 2; cited from earlier work
[8] = test system: mPGES-1; design: method as in PMID 19719242; details: cell free; cited from earlier work
[9] = test system: rat paw edema; design: method as in PMID 19913956; details: in comparison with ketorolac; cited from earlier work
[10] = target: T1, COX-1 (ovine) (Ovis aries, UniProt P05979); assay: COX colorimetric inhibitor screening assay, COX-1
T1 sequence (P05979 25-600): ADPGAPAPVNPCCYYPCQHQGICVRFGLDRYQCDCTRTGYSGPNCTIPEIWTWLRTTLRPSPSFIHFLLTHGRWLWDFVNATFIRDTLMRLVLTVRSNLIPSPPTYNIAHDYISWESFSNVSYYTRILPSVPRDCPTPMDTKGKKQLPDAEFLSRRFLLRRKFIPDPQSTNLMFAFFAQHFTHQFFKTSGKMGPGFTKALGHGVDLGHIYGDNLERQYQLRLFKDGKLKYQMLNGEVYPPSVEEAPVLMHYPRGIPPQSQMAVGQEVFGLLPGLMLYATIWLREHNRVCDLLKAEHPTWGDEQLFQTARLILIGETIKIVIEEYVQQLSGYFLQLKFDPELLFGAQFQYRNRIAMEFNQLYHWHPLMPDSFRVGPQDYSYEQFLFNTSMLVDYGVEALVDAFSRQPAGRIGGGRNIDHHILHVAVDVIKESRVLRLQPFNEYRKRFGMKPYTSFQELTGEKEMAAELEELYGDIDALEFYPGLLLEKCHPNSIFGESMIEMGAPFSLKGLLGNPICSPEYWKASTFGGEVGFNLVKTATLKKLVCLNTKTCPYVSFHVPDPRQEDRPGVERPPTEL

[11] = target: T2, COX-2 (human recombinant) (Homo sapiens, UniProt P35354); assay: COX colorimetric inhibitor screening assay, COX-2; details: for SI (COX-2 selectivity index = IC50 of COX-1/IC50 of COX-2): in vitro
T2 sequence (P35354 18-604): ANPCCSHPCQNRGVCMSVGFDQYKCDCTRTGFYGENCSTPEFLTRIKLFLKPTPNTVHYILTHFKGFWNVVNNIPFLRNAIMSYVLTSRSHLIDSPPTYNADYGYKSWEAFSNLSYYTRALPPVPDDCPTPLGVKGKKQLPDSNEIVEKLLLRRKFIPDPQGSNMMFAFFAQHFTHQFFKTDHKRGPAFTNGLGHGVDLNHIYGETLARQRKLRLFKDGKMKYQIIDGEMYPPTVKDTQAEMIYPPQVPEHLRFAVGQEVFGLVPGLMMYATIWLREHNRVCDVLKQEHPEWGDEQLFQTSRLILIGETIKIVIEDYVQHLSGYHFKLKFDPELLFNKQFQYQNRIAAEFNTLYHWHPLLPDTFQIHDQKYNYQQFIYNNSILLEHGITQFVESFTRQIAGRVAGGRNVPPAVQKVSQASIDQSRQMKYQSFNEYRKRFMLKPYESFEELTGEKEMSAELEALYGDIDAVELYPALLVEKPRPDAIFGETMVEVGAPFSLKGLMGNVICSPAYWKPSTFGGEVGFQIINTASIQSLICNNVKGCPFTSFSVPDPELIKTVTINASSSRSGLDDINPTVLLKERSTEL

Row | SMILES | % Inhibition in Edema Thickness 1 h [1] | % Inhibition in Edema Thickness 2 h [1] | % Inhibition in Edema Thickness 3 h [1] | Potency (anti-inflammatory activity of tested compound/ibuprofen) [1] | histopathological findings in stomach transverse sections [2] | Ulcerogenicity % Protection (% inhibition of ulcer relative to ibuprofen) [3] | analgesic activity (in words) [4] | IC50 [5] | IC50 [6] | IC50 [7] | other results
1 | CC(C)Cc1ccc(C(C)C(=O)Nc2c(C#N)c3n(c2C(=O)Nc2ccc(Br)cc2)CCC3)cc1 (racemic) [Compound 19, (R,S)-N-(4-Bromophenyl)-7-cycno-6-(2-(4-isobutylphenyl)propanamido)-2,3-dihydro-1H-pyrrolizine-5-carboxamide] | 13.82% | 22.44% | 38.79% | 0.95 | normal mucosal glands with no histopathological effects | 100% | lower than that of ibuprofen |  |  |  | anti-inflammatory activity (in words) [1]: weak activity after the first hour; melting point: 217 to 219 °C
2 | CC1(C)Cc2c(-c3ccccc3)c(-c3ccc(Cl)s3)c(CC(=O)O)n2C1 [Compound 3] |  |  |  |  |  |  |  | 250 nM | 210 nM |  | 
3 | Cc1ccc(-c2c(-c3ccc(S(C)(=O)=O)cc3)cn3c2CCC3)cc1 [Compound 4] |  |  |  |  |  |  |  | 10000 nM | 700 nM | 5 nM | 
4 | COC1c2c(-c3ccccc3)c(-c3ccc(Cl)cc3)c(C)n2CC1(C)C (stereo not drawn) [Compound 5] |  |  |  |  |  |  |  | 60 nM | 500 nM | 7500 nM | 
5 | Cc1ccc(S(=O)(=O)NC(=O)Cc2c(-c3ccc(Cl)cc3)c(-c3ccccc3)c3n2CC(C)(C)C3)cc1 [Compound 6] |  |  |  |  |  |  |  | 260 nM |  |  | IC50 [8]: 4800 nM
6 | N#Cc1c(N)c(C(=O)Nc2ccc(C(=O)O)cc2)n2c1CCC2 [Compound 7] |  |  |  |  |  |  |  |  |  |  | reduction in rat paw edema [9]: approximately 50%
7 | Cc1ccc(S(=O)(=O)Nc2c(C#N)c3n(c2C(=O)Nc2ccc(Br)cc2)CCC3)cc1 [Compound 17, N-(4-Bromophenyl)-7-cyano-6-(4-methylphenylsulfonamido)-2,3-dihydro-1H-pyrrolizine-5-carboxamide] | 27.19% | 40.55% | 49.47% | 1.21 | little histopathological effects such as congested blood vessels and variable degrees of leukocytes infiltration | 83.69% | higher analgesic activity than ibuprofen; also recorded: the most active |  |  |  | IC50 [10]: 5010 nM; IC50 [11]: 1720 nM; SI (COX-2 selectivity index = IC50 of COX-1/IC50 of COX-2) [11]: 2.91; Ulcerogenicity UI (ulcer index) [3]: 2.26; analgesic potency relative to ibuprofen ([4]; 0.48 mmol/kg): 1.03 to 1.27 times
8 | N#Cc1c(NC(=O)C(=O)Nc2c(C#N)c3n(c2C(=O)Nc2ccc(Br)cc2)CCC3)c(C(=O)Nc2ccc(Br)cc2)n2c1CCC2 [Compound 18, N^1,N^2-Bis(5-((4-Bromophenyl)carbamoyl)-7-cycno-2,3-dihydro-1H-pyrrolizin-6-yl)oxalamide] | 6.91% | 17.72% | 22.42% | 0.55 | little histopathological effects such as congested blood vessels and variable degrees of leukocytes infiltration | 68.18% | lower than that of ibuprofen |  |  |  | anti-inflammatory activity (in words) [1]: lower activity than both ibuprofen and the parent compound 12; IC50 [10]: 5100 nM; IC50 [11]: 850 nM; SI (COX-2 selectivity index = IC50 of COX-1/IC50 of COX-2) [11]: 6.03; Ulcerogenicity UI (ulcer index) [3]: 4.41; melting point: 318 to 321 °C
9 | O=C(c1ccccc1)c1ccc2n1CCC2C(=O)O (stereo not drawn) [Ketorolac, ketorolac] |  |  |  |  |  |  |  |  | 1230 nM | 3600 nM | selectivity ratio for COX-1 ([6]; COX-1 over COX-2): 2.9
10 | CC1(C)Cc2c(-c3ccccc3)c(-c3ccc(Cl)cc3)c(CC(=O)O)n2C1 [Licofelone, licofelone] |  |  |  |  |  |  |  | 180 nM | 210 nM | > 30000 nM | 
